The NIST ThermoML archive (doi:10.1021/je1004092)

Columns and labels:
[1] = Crystal; Adiabatic calorimetry
[2] = molar heat capacity at constant pressure; conditions: 101.33 kPa, Vacuum adiabatic calorimetry
[3] = Molar enthalpy of transition or fusion; conditions: Crystal; Adiabatic calorimetry

O=C(N[C@@H](Cc1ccccc1)C(=O)O)OCc1ccccc1 [((benzyloxy)carbonyl)-L-phenylalanine]
Conditions | Molar enthalpy of transition or fusion [kcal/mol] | Triple point temperature [K]
[1] | – | 359.48
[3] | 7.597 | –

[2]
Conditions | molar heat capacity at constant pressure [J/K/mol]
79.13 K, Crystal | 109.2
81.17 K, Crystal | 111.4
84.32 K, Crystal | 114.7
87.26 K, Crystal | 119.7
90.2 K, Crystal | 124.4
93.15 K, Crystal | 128
96.1 K, Crystal | 130.2
99.05 K, Crystal | 132.6
103.16 K, Crystal | 135.7
107.22 K, Crystal | 140.4
110.14 K, Crystal | 143.8
113.08 K, Crystal | 146.3
116.03 K, Crystal | 149.3
119 K, Crystal | 150.1
121.92 K, Crystal | 156.4
124.86 K, Crystal | 158.7
127.83 K, Crystal | 160.7
130.81 K, Crystal | 161.9
133.81 K, Crystal | 165.1
136.78 K, Crystal | 168.9
139.76 K, Crystal | 171.3
142.78 K, Crystal | 172.5
145.75 K, Crystal | 176.2
148.7 K, Crystal | 181.2
152.53 K, Crystal | 181.4
156.3 K, Crystal | 185.2
159.2 K, Crystal | 189.8
162.16 K, Crystal | 191.9
165.09 K, Crystal | 194.2
168.09 K, Crystal | 197.5
171.13 K, Crystal | 198.8
174.16 K, Crystal | 201.1
177.16 K, Crystal | 206.1
180.14 K, Crystal | 209.9
183.11 K, Crystal | 211.4
186.05 K, Crystal | 211.8
188.97 K, Crystal | 218.1
191.95 K, Crystal | 219.3
194.98 K, Crystal | 223
198 K, Crystal | 226.3
201 K, Crystal | 229.2
204.65 K, Crystal | 233.5
208.28 K, Crystal | 236.2
211.23 K, Crystal | 238.9
214.17 K, Crystal | 242
217.09 K, Crystal | 248.7
220 K, Crystal | 250.5
222.89 K, Crystal | 252.5
225.77 K, Crystal | 254.9
228.72 K, Crystal | 256.4
231.73 K, Crystal | 258
234.73 K, Crystal | 260.1
237.77 K, Crystal | 264.5
240.78 K, Crystal | 266.6
244.33 K, Crystal | 268.1
247.89 K, Crystal | 270.2
250.89 K, Crystal | 273.1
253.88 K, Crystal | 277.4
256.87 K, Crystal | 280.9
259.83 K, Crystal | 282.4
262.79 K, Crystal | 286.2
265.74 K, Crystal | 290.4
268.67 K, Crystal | 292.7
271.58 K, Crystal | 297.9
274.49 K, Crystal | 302.3
277.38 K, Crystal | 301.8
280.25 K, Crystal | 307.3
283.12 K, Crystal | 314.7
286.09 K, Crystal | 319.9
289.05 K, Crystal | 323.8
291.98 K, Crystal | 326.7
295.01 K, Crystal | 330.1
298.06 K, Crystal | 333
301.11 K, Crystal | 336.5
304.15 K, Crystal | 339.5
307.19 K, Crystal | 340.6
310.22 K, Crystal | 343.9
313.24 K, Crystal | 348.3
316.26 K, Crystal | 351.4
319.27 K, Crystal | 353.7
322.27 K, Crystal | 358.3
325.27 K, Crystal | 362.5
328.25 K, Crystal | 367.6
331.24 K, Crystal | 371.4
334.21 K, Crystal | 375.1
337.17 K, Crystal | 380.6
340.13 K, Crystal | 389.8
343.07 K, Crystal | 396.6
345.97 K, Crystal | 418.3
348.88 K, Crystal | 508.8
361.43 K, Liquid | 549.6
364.56 K, Liquid | 551.9
367.7 K, Liquid | 552.7
370.83 K, Liquid | 553.6
373.95 K, Liquid | 554.9
377.05 K, Liquid | 555.6
380.13 K, Liquid | 557.1
383.21 K, Liquid | 558.5
386.33 K, Liquid | 560.8
389.43 K, Liquid | 562.4
392.55 K, Liquid | 563.6
395.55 K, Liquid | 564.8
